Test results reported in ChEMBL document CHEMBL2424535, “Fragment-based discovery of focal adhesion kinase inhibitors” (Bioorg Med Chem Lett, 2013).

How the values were obtained:
[1] = Partition coefficient, log P of the compound; format: physicochemical; conditions: octanol/water
[2] = Lipophilicity, log D of the compound at pH 7.4; format: physicochemical; conditions: buffer

| SMILES | logP ([1]; read-out: logP) | logD ([2]; read-out: logD) | logP [1] | logD [2] |
| --- | --- | --- | --- | --- |
| Cc1ccc(-n2nc(C(C)(C)C)cc2NC(=O)Nc2ccc(-n3cnc(C)c3)cc2)cc1 | 4.83 | 4.08 |  |  |
| Cc1ccc(-n2nc(C(C)(C)C)cc2NC(=O)Nc2ccc(-n3ccnc3)cc2)cc1 | 4.35 | 3.85 |  |  |
| Cc1ccc(-n2nc(C(C)(C)C)cc2NC(=O)Nc2ccc(-n3cnc4c(N)ncnc43)cc2)cc1 | 3.98 | 4.05 |  |  |
| Cc1ccc(-n2nc(C(C)(C)C)cc2NC(=O)Nc2ccc(-c3cccnc3)cc2)cc1 | 4.84 | 4.25 |  |  |
| Cc1ccc(-n2nc(C(C)(C)C)cc2NC(=O)Nc2ccc(-n3cnnc3)cc2)cc1 | 4.07 | 3.94 |  |  |
| COc1ccc(-c2ccc(NC(=O)Nc3cc(C(C)(C)C)nn3-c3ccc(C)cc3)cc2)cn1 | 4.25 | 4.02 |  |  |
| Cc1ccc(-n2nc(C(C)(C)C)cc2NC(=O)Nc2ccc(-n3cnc(Cl)c3Cl)cc2)cc1 | > 5.4 | 3.96 |  |  |
| Cc1ccc(-n2nc(C(C)(C)C)cc2NC(=O)Nc2ccc(-c3ccc(N)nc3)cc2)cc1 | 5.13 | 3.88 |  |  |
| Cc1ccc(-n2nc(C(C)(C)C)cc2NC(=O)Nc2ccc(-c3ccncc3)cc2)cc1 | > 5 | 3.58 |  |  |
| Cc1ccc(-n2nc(C(C)(C)C)cc2NC(=O)Nc2ccc(-n3cnnn3)cc2)cc1 | 4.14 | 3.79 |  |  |
| Cc1ccc(-n2nc(C(C)(C)C)cc2NC(=O)Nc2ccc(-c3ccc(OCc4ccccc4)nc3)cc2)cc1 | > 5.4 | 3.94 |  |  |
| COc1cc(OC)nc(-c2ccc(NC(=O)Nc3cc(C(C)(C)C)nn3-c3ccc(C)cc3)cc2)n1 | > 5.4 | 3.94 |  |  |

The remaining lines, values ahead:

| logP ([1]; read-out: logP) | logD ([2]; read-out: logD) | logP [1] | logD [2] | SMILES |
| --- | --- | --- | --- | --- |
| 3.86 | 3.81 |  |  | Cc1ccc(-n2nc(C(C)(C)C)cc2NC(=O)Nc2ccc(-n3nnnc3C)cc2)cc1 |
|  |  | 2.86 | 3.89 | Cc1ccc(-n2nc(C(C)(C)C)cc2NC(=O)Nc2ccc(-c3nnc(S)n3C)cc2)cc1 |
| 4.6 | 4.33 |  |  | Cc1ccc(-n2nc(C(C)(C)C)cc2NC(=O)Nc2ccc(-n3cncc3C)cc2)cc1 |
| 4.96 | 4.49 |  |  | Cc1ccc(-n2nc(C(C)(C)C)cc2NC(=O)Nc2ccc(-c3cnco3)cc2)cc1 |
| 5.15 | 4.58 |  |  | Cc1ccc(-n2nc(C(C)(C)C)cc2NC(=O)Nc2ccc(-c3csnn3)cc2)cc1 |
| 3.34 | 3.21 |  |  | Cc1ccc(-n2nc(C(C)(C)C)cc2NC(=O)Nc2ccc(-c3nncn3C)cc2)cc1 |
